Results as given in ChEMBL document CHEMBL1129745, “Synthesis and antibacterial activity of new tropone-substituted phenyloxazolidinone antibacterial agents 1. Identification of leads and importance of the tropone substitution pattern” (1996).
≈ marks a conversion by molar mass, not a printed value.

Tests used:
Assay type in all cases: functional
Streptococcus pneumoniae = assay: Compound was tested in vitro for antibacterial activity against Streptococcus pneumoniae UC 9912.
Enterococcus faecalis = assay: Compound was tested in vitro for antibacterial activity against Enterococcus faecalis UC 9217.
Escherichia coli = assay: Compound was tested in vitro for antibacterial activity against Escherichia coli extracts, using cell free prokaryotic transcription coupled translation (T/T) assay.; set-up: concentration or dose not given beside the values; details: dose or concentration not given here
[1] = tested on: Mycobacterium tuberculosis; assay: Compound was tested in vitro for antibacterial activity against Mycobacterium tuberculosis H37 Rv.
[2] = tested on: Staphylococcus epidermidis; assay: Compound was tested in vitro for antibacterial activity against methicillin-resistant Staphylococcus epidermidis UC 12084
Staphylococcus aureus [3] = assay: Compound was tested in vitro for antibacterial activity against methicillin-resistant Staphylococcus aureus UC 6685.
Staphylococcus aureus [4] = assay: Compound was tested in vitro for antibacterial activity against methicillin-susceptible Staphylococcus aureus UC 9213.
Mus musculus = assay: Amount of drug required (mg/kg body weight/dose) to cure 50% of infected mice subjected to a lethal systemic infection with Staphylococcus aureus UC 9213

SMILES | MIC (Streptococcus pneumoniae) [µg/mL] | MIC (Enterococcus faecalis) [µg/mL] | inhibition (Escherichia coli) [%] | MIC [1] [µg/mL] | MIC [2] [µg/mL] | MIC (Staphylococcus aureus [3]) [µg/mL] | MIC (Staphylococcus aureus [4]) [µg/mL] | ED50 (Mus musculus) [mg/kg]
CN[C@H](CC(C)C)C(=O)N[C@H]1C(=O)N[C@@H](CC(N)=O)C(=O)N[C@H]2C(=O)N[C@H]3C(=O)N[C@H](C(=O)N[C@H](C(=O)O)c4cc(O)cc(O)c4-c4cc3ccc4O)[C@H](O)c3ccc(c(Cl)c3)Oc3cc2cc(c3O[C@@H]2O[C@H](CO)[C@@H](O)[C@H](O)[C@H]2O[C@H]2C[C@](C)(N)[C@H](O)[C@H](C)O2)Oc2ccc(cc2Cl)[C@H]1O [VANCOMYCIN] | 0.5 (≈ 0.345 µM) | – | – | – | – | – | – | –
COc1cccc(-c2ccc(N3CC(CNC(C)=O)OC3=O)cc2)cc1=O (stereo not drawn) | 0.5 (≈ 1.36 µM) | 2 (≈ 5.43 µM) | 90 | ≤ 1 | 0.5 (≈ 1.36 µM) | 2 (≈ 5.43 µM) | 4 (≈ 10.9 µM) | –
CC(=O)NCC1CN(c2ccc(-c3ccc(N4CCOCC4)c(=O)cc3)cc2)C(=O)O1 (stereo not drawn) | 0.5 (≈ 1.18 µM) | 1 (≈ 2.36 µM) | 81 | ≤ 1 | 0.5 (≈ 1.18 µM) | 2 (≈ 4.72 µM) | 2 (≈ 4.72 µM) | –
COc1ccc(-c2ccc(N3CC(CNC(C)=O)OC3=O)cc2)ccc1=O (stereo not drawn) | 0.25 (≈ 0.679 µM) | 1 (≈ 2.71 µM) | 89 | ≤ 1 | 0.5 (≈ 1.36 µM) | 1 (≈ 2.71 µM) | 2 (≈ 5.43 µM) | –
C=CCNc1cccc(-c2ccc(N3CC(CNC(C)=O)OC3=O)cc2)cc1=O (stereo not drawn) | 0.5 (≈ 1.27 µM) | 1 (≈ 2.54 µM) | 80 | – | 0.5 (≈ 1.27 µM) | 1 (≈ 2.54 µM) | 2 (≈ 5.08 µM) | 12.5
C=CCOc1ccc(-c2ccc(N3CC(CNC(C)=O)OC3=O)cc2)ccc1=O (stereo not drawn) | 0.25 (≈ 0.634 µM) | 2 (≈ 5.07 µM) | 74 | – | 0.5 (≈ 1.27 µM) | 1 (≈ 2.54 µM) | 4 (≈ 10.1 µM) | 7.9
C/N=c1\ccc(-c2ccc(N3CC(CNC(C)=O)OC3=O)cc2)ccc1O (stereo not drawn) | 0.25 (≈ 0.68 µM) | 1 (≈ 2.72 µM) | – | – | 0.25 (≈ 0.68 µM) | 1 (≈ 2.72 µM) | 2 (≈ 5.44 µM) | 4.6
C#CCNc1cccc(-c2ccc(N3CC(CNC(C)=O)OC3=O)cc2)cc1=O (stereo not drawn) | 0.5 (≈ 1.28 µM) | 1 (≈ 2.55 µM) | 76 | ≤ 1 | 1 (≈ 2.55 µM) | 1 (≈ 2.55 µM) | 2 (≈ 5.11 µM) | 3.4
CC(=O)NC[C@H]1CN(c2ccc(C(C)=O)cc2)C(=O)O1 (racemic) [DUP-721] | 2 (≈ 7.24 µM) | 8 (≈ 29 µM) | 45 | ≤ 16 | 2 (≈ 7.24 µM) | 4 (≈ 14.5 µM) | 8 (≈ 29 µM) | 9.4
C=CCNc1ccc(-c2ccc(N3CC(CNC(C)=O)OC3=O)cc2)ccc1=O (stereo not drawn) | 0.5 (≈ 1.27 µM) | 1 (≈ 2.54 µM) | 81 | – | 0.5 (≈ 1.27 µM) | 1 (≈ 2.54 µM) | 2 (≈ 5.08 µM) | 12.7
COc1cc(-c2ccc(N3CC(CNC(C)=O)OC3=O)cc2)cccc1=O (stereo not drawn) | 4 (≈ 10.9 µM) | 32 (≈ 86.9 µM) | 39 | ≤ 16 | 8 (≈ 21.7 µM) | 16 (≈ 43.4 µM) | 64 (≈ 174 µM) | > 20
